What was measured:
[1] = system: NIH/3T3; experiment: Antiproliferative MTT assay; type: cell-based, murine; conditions: 72 h
Procedure: (§1) For the determination of the antiproliferative properties of the prepared extract and selected alkaloids (isopteropodine, mitraphylline, and uncarine D), an MTT assay was applied on our […] cell panel (see Table S4). […] All were maintained in a minimal essential medium completed with 10% fetal bovine serum, 1% non-essential amino acids, and 1% penicillin–streptomycin at 37 °C in a humidified atmosphere containing 5% CO2. All cell lines were purchased from the European Collection of Cell Cultures (Salisbury, UK), except for SiHa and C33A, which were from the American Tissue Culture Collection, LGC Standards GmbH (Wesel, Germany). Cell culture media and supplements were obtained from Lonza Group Ltd. (Basel, Switzerland). Cells were seeded into 96-well plates (C33A 10,000/well, all others 5000/well); after overnight incubation, the test substances were added and incubated for another 72 h under cell-culturing conditions. Uncaria tomentosa extract and the alkaloids were tested in the 1–90 μg/mL and 1–30 μM ranges, respectively. Finally, 20 μL of 5 mg/mL MTT solution was added to each well and incubated for 4 h; the medium was discarded, and the precipitated formazan crystals were dissolved in DMSO for 60 min with shaking. The absorbance was determined using a microplate reader (SPECTROstar Nano, BMG Labtech GmbH). Two independent experiments were performed with five parallels for each condition. Cisplatin, a clinically used anticancer agent (Ebewe GmbH, Unterach, Austria), was included as a reference compound. Calculations were conducted using the GraphPad Prism 10.0 software (GraphPad Software Inc., San Diego, CA, USA).
(§2) Table S4 – Antiproliferative properties of Uncaria tomentosa extract, three natural products (isopteropodine, mitraphylline, and uncarine D) and the
(§3) reference agent cisplatin.
(§4) Cell line Uncaria tomentosa isopteropodine mitraphylline uncarine D [95% confidence
(§5) 1: The highest applied concentration was 90 μg/mL and 30 μM for the extract and the pure natural products, respectively.
(§6) 2: Inhibitions less than 20% compared to the untreated control were regarded as negligible and were not given numerically.

[2] = system: MCF7; experiment: Antiproliferative MTT assay; type: cell-based, human; conditions: 30 μM pure natural product, 72 h
Procedure: as §1, §2, §3, §4, §5, §6

[3] = system: C33A; experiment: Antiproliferative MTT assay; type: cell-based, human; conditions: 72 h
Procedure: as §1, §2, §3, §4, §5, §6

[4] = system: HEK293-Mock-B; experiment: Antiproliferative MTT assay; type: cell-based, human; conditions: 72 h
Procedure: as §1, §2, §3, §4, §5, §6

[5] = system: HEK293-Mock; experiment: Antiproliferative MTT assay; type: cell-based, human; conditions: 72 h
Procedure: as §1, §2, §3, §4, §5, §6

[6] = system: MDA-MB-231; experiment: Antiproliferative MTT assay; type: cell-based, human; conditions: 30 μM pure natural product, 72 h
Procedure: as §1, §2, §3, §4, §5, §6

[7] = system: A2780; experiment: Antiproliferative MTT assay; type: cell-based, human; conditions: 30 μM pure natural product, 72 h
Procedure: as §1, §2, §3, §4, §5, §6

[8] = system: HeLa; experiment: Antiproliferative MTT assay; type: cell-based, human; conditions: 30 μM pure natural product, 72 h
Procedure: as §1, §2, §3, §4, §5, §6

[9] = system: T47D; experiment: Antiproliferative MTT assay; type: cell-based, human; conditions: 30 μM pure natural product, 72 h
Procedure: as §1, §2, §3, §4, §5, §6

[10] = system: SiHa; experiment: Antiproliferative MTT assay; type: cell-based, human; conditions: 72 h
Procedure: as §1, §2, §3, §4, §5, §6

[11] = system: HEK293-OCT2; type: cell-based, human
Procedure: as §1, §2, §3, §4, §5, §6

[12] = system: HEK293-OATP2B1; type: cell-based, human
Procedure: as §1, §2, §3, §4, §5, §6

[13] = system: HEK293-OAT1; type: cell-based, human
Procedure: as §1, §2, §3, §4, §5, §6

[14] = system: HEK293-OCT1; type: cell-based, human
Procedure: as §1, §2, §3, §4, §5, §6

[15] = system: HEK293-OATP1B3; type: cell-based, human
Procedure: as §1, §2, §3, §4, §5, §6

[16] = system: OATP1B3; set-up: method as in ref 75 (a number printed in a supplementary file, which may have a reference list of its own: not looked up in the article's list); conditions: cited from earlier work; for inhibition: OATP1B1/3
[17] = system: OATP1B1; set-up: method as in ref 75 (a number printed in a supplementary file, which may have a reference list of its own: not looked up in the article's list); conditions: cited from earlier work; for inhibition: OATP1B1/3
[18] = system: pregnane X receptor (PXR); conditions: cited from earlier work
[19] = system: ABCG5/8; set-up: method as in ref 155 (a number printed in a supplementary file, which may have a reference list of its own: not looked up in the article's list); conditions: cited from earlier work
[20] = system: MDR1; conditions: cited from earlier work
[21] = system: mouse MRP1; set-up: method as in ref 154 (a number printed in a supplementary file, which may have a reference list of its own: not looked up in the article's list); conditions: cited from earlier work
[22] = system: Rat BSEP; set-up: method as in ref 154 (a number printed in a supplementary file, which may have a reference list of its own: not looked up in the article's list); conditions: cited from earlier work
[23] = system: mBCRP; set-up: method as in ref 154 (a number printed in a supplementary file, which may have a reference list of its own: not looked up in the article's list); conditions: cited from earlier work
[24] = system: rMRP2; set-up: method as in ref 157 (a number printed in a supplementary file, which may have a reference list of its own: not looked up in the article's list); conditions: transcription and expression; cited from earlier work
[25] = system: rMDR1a; set-up: method as in ref 157 (a number printed in a supplementary file, which may have a reference list of its own: not looked up in the article's list); conditions: transcription and expression; cited from earlier work
[26] = system: rNTCP; set-up: method as in ref 157 (a number printed in a supplementary file, which may have a reference list of its own: not looked up in the article's list); conditions: transcription and expression; cited from earlier work
[27] = system: rMRP4; set-up: method as in ref 157 (a number printed in a supplementary file, which may have a reference list of its own: not looked up in the article's list); conditions: transcription and expression; cited from earlier work
[28] = system: rMRP1; set-up: method as in ref 156 (a number printed in a supplementary file, which may have a reference list of its own: not looked up in the article's list); conditions: transcription and expression; cited from earlier work
[29] = system: DAT; set-up: method as in ref 153 (a number printed in a supplementary file, which may have a reference list of its own: not looked up in the article's list); conditions: cited from earlier work
[30] = system: NET; set-up: method as in ref 153 (a number printed in a supplementary file, which may have a reference list of its own: not looked up in the article's list); conditions: cited from earlier work
[31] = system: SERT; set-up: method as in ref 153 (a number printed in a supplementary file, which may have a reference list of its own: not looked up in the article's list); conditions: cited from earlier work
[32] = read-out: cisplatin IC50 [95% confidence interval]

## COC(=O)C1=CO[C@@H](C)[C@@H]2CN3CC[C@@]4(C(=O)Nc5ccccc54)[C@H]3C[C@H]12 [uncarine D]
[1]; 30 μM pure natural product
  Cell growth inhibition at the highest concentration (% ± SEM): < 20%
[2]
  Cell growth inhibition at the highest concentration (% ± SEM): < 20%
[3]; 30 μM pure natural product
  Cell growth inhibition at the highest concentration (% ± SEM): < 20%
[4]; 30 μM pure natural product
  Cell growth inhibition at the highest concentration (% ± SEM): < 20%
[5]; 30 μM pure natural product
  Cell growth inhibition at the highest concentration (% ± SEM): < 20%
[6]
  Cell growth inhibition at the highest concentration (% ± SEM): < 20%
[7]
  Cell growth inhibition at the highest concentration (% ± SEM): < 20%
[8]
  Cell growth inhibition at the highest concentration (% ± SEM): < 20%
[9]
  Cell growth inhibition at the highest concentration (% ± SEM): < 20%
[10]; 30 μM pure natural product
  Cell growth inhibition at the highest concentration (% ± SEM): < 20%

## N.N.[Cl][Pt][Cl] [cisplatin, reference compound]
[11]
  IC50: 5.51 µM
[12]
  IC50: 9.7 µM
[13]
  IC50: 5.55 µM
[14]
  IC50: 9.14 µM
[15]
  IC50: 11.2 µM
[1]; [32]
  IC50: 5.5 µM
[3]; [32]
  IC50: 5.85 µM
[4]; [32]
  IC50: 13.3 µM
[5]; [32]
  IC50: 19.5 µM
[10]; [32]
  IC50: 4.29 µM

## CC[C@H](CC[C@@H](C)[C@H]1CC[C@H]2[C@@H]3CC=C4C[C@@H](O)CC[C@]4(C)[C@H]3CC[C@]12C)C(C)C [Stigmast-5-en-3beta-ol]
[16]
  inhibition: < 50%
[17]
  inhibition: < 50%

## CC(C)C1=CC2=CC[C@@H]3[C@](C)(CCC[C@@]3(C)C(=O)O)[C@H]2CC1 [Abietic acid]
[16]; second value of OATP1B1/3 pair
  Ki: 4.08 µM
[17]; first value of OATP1B1/3 pair
  Ki: 1.47 µM

## C=C[C@H]1CN2CC[C@@]3(C(=O)Nc4ccccc43)[C@@H]2C[C@@H]1/C(=C\OC)C(=O)OC [isocorynoxeine]
[18]
  PXR activation: PXR activators

## CC[C@H](CC[C@@H](C)[C@H]1CC[C@H]2[C@@H]3CC=C4C[C@@H](O)CC[C@]4(C)[C@H]3CC[C@]12C)C(C)C [Beta-Sitosterol]
[19]
  Type of interaction: probably substrate
[20]
  Type of interaction: no substrate, no inhibitor
[21]
  Type of interaction: no substrate, no inhibitor
[22]
  Type of interaction: no substrate, no inhibitor
[23]
  Type of interaction: no substrate, no inhibitor

## O=C1CC(c2ccccc2)Oc2cc(O)cc(O)c21 (stereo not shown) [5,7-Dihydroxyflavanone]
[16]
  inhibition: < 50%
[17]
  inhibition: < 50%

## COc1cc(O)cc(/C=C/c2ccccc2)c1 [Pinosylvin 3-(methyl ether)]
[16]
  inhibition: < 50%
[17]
  inhibition: < 50%

## C=C[C@H]1CN2CC[C@]3(C(=O)Nc4ccccc43)[C@@H]2C[C@@H]1/C(=C\OC)C(=O)OC [corynoxeine]
[18]
  PXR activation: PXR activators

## CC1(C)C2CCC1(C)C(O)C2 (stereo not shown) [Borneol]
[24]
  Type of interaction: inhibited the transcription
[25]
  Type of interaction: inhibited the transcription
[26]
  Type of interaction: inhibited the transcription
[27]
  Type of interaction: inhibited the transcription
[28]
  Type of interaction: inhibited the transcription

## CC(C)=CCC[C@](C)(O)[C@@H]1CC=C(C)CC1 [Alpha-bisbolol]
[16]
  inhibition: < 50%
[17]
  inhibition: < 50%

## COC(=O)C1=CO[C@@H](C)[C@@H]2CN3CC[C@]4(C(=O)Nc5ccccc54)[C@@H]3C[C@H]12 [pteropodine]
[18]
  PXR activation: PXR activators

## CC1(C)CCC2(C(=O)O)CCC3(C)C(=CCC4C5(C)CCC(O)C(C)(CO)C5CCC43C)C2C1 (stereo not drawn) [alpha-Hederagenin]
[29]
  IC50: 0.00109 ± 0.00012 µM
[30]
  IC50: 0.00015 ± 2e-05 µM
[31]
  IC50: 0.00134 ± 4e-05 µM

— paper PMC11597817, “Modulation of Multispecific Transporters by Uncaria tomentosa Extract and Its Major Phytoconstituents” (Pharmaceutics, 2024)
